The experiment deals with T1, PKM2, human recombinant (Homo sapiens, UniProt P14618).
T1 construct: purchased BPS 50295
Put plainly: PKM2 enzymatic activity assay (Kinase-Glo Plus luminescence).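 For Max activity Group: percent increase over no-compound signal after subtracting the no-PKM2 background.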 It counts as biochemical. To be noted: for AC50: 0.1 nM PKM2, 0.1 mM ADP, 0.5 mM PEP, 1 hour, room temperature, read-out: AC50 group; for Emax: 1 h, read-out: Max activity Group; for Max activity: 30 μM. As to the method: PKM2 performs the following enzymatic reaction, where the PKM2 substrates, PEP (phosphoenolpyruvate) and ADP, are converted to pyruvate and ATP as follows:
All of the enzymatic reactions were conducted in duplicates at room temperature for 1 hour in a 50 μL mixture containing: • PKM2 assay buffer (50 mM Imidazole, pH 7.2; 7 mM MgCl2; 50 mM KCl; 0.01% Tween; • and 0.05% BSA), 0.1 mM ADP, 0.5 mM PEP, 0.1 nM PKM2 enzyme (PKM2, human recombinant (BPS catalog number 50295)) and the indicated test compound. Fructose 1,6 biphosphat e, (FBP (Sigma)) was used as a positive control for activation at concentration of 0.5 mM. After enzymatic reactions, 50 μL of Kinase-Glo® Plus reagent (Promega kit) was added to each well and luminescence was measured using a BioTek Synergy™ 2 microplate reader.
PKM2 activity assays were performed in duplicates at each concentration. The luminescence data were analyzed using the computer software, GraphPad PRISM®. In the absence of the compound, the luminescence was defined as 0% activity. The percent activity in the presence of each compound was calculated according to the following equation:
% Activity=[(L−Lb)/(Lt−Lb)−1]×100%
where L=the luminescence in the presence of the test compound, Lb=the luminescence in the absence of PKM2, and Lt=the luminescence intensity in the absence of the test compound. The % activity values versus a series of compound concentrations were plotted using non-linear regression analysis of Sigmoidal dose-response curve generated with the equation Y=B+(T−B)/1+10^((LogEC50-X)×Hill Slope), where Y=percent activity, B=minimum percent activity, T=maximum percent activity, X=logarithm of compound and Hill Slope=slope factor or Hill coefficient. The AC50 values, shown in Table 2 were determined for the indicated test compounds as the concentration causing a half-maximal percent activity.
On the technique in general: Kinase-Glo measures the ATP left after a reaction by luminescence.

The mark [1] stands for this setting: maximum percent activity, luminescence without compound = 0% activity.

The text below walks through data of patent publication US20120302609A1, “Pyrazolines for the Modulation of PKM2” (Dynamix Pharmaceuticals LTD., priority 2011, published 2012).

T1 sequence (P14618 whole entry): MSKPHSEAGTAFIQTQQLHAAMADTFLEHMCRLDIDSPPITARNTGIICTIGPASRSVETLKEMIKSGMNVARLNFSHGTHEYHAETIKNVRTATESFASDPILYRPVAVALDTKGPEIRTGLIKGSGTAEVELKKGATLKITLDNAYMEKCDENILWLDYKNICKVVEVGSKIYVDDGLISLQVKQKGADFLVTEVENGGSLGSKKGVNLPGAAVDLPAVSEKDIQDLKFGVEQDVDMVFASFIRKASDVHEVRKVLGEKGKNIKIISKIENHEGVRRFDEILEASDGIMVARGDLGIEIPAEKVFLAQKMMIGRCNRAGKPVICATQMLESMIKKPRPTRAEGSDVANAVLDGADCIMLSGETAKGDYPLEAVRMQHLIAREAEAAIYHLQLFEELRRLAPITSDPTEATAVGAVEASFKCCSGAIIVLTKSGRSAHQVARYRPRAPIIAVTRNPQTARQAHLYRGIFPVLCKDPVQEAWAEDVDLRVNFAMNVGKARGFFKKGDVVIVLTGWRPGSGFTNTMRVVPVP

Turning to `COc1ccc(C2CC(c3ccc(NS(=O)(=O)c4ccc(OC)cc4)cc3)=NN2C(C)=O)cc1` (racemic) [Compound 19A, N-(4-(1-Acetyl-5-(4-methoxyphenyl)-4,5-dihydro-1H-pyrazol-3-yl)phenyl)-4-methoxy benzenesulfonamide], the AC50 (in general, the midpoint of the concentration-response curve, whichever way the signal moves) was not above 1 µM. Under setting [1], the Emax is not below 200%.
The matching figures for `CC(=O)N1N=C(c2ccc(NS(=O)(=O)c3ccc(F)cc3)cc2)CC1c1ccc(F)cc1` (racemic) [Compound 25A, N-(4-(1-Acetyl-5-(4-fluorophenyl)-4,5-dihydro-1H-pyrazol-3-yl)phenyl)-4-fluoro benzenesulfonamide]: not above 1 µM and not above 130%.
As for `CCS(=O)(=O)Nc1ccc(C2=NN(C(C)=O)C(c3ccc(OC)cc3)C2)cc1` (single isomer, unassigned) [Compound 2A, N-(4-(1-Acetyl-5-(4-methoxyphenyl)-4,5-dihydro-1H-pyrazol-3-yl)phenyl)ethane sulfonamide], the AC50 was not above 1 µM.
`CCS(=O)(=O)Nc1ccc(C2=NN(C(C)=O)C(c3ccc(OC)cc3)C2)cc1` (single isomer, unassigned) [Compound 3A]: the AC50 was not above 1 µM. Moreover, the Emax under setting [1] lay in the range of 130 to 200%.
For `COc1ccc(C2CC(c3ccc(NS(=O)(=O)c4ccc(F)cc4)cc3)=NN2C(C)=O)cc1` (single isomer, unassigned) [Compound 12A] the same measures were 10 to 100 µM and not above 130%.
For the molecule `CC(=O)N1N=C(c2ccc(NS(=O)(=O)c3ccc(F)cc3)cc2)CC1c1ccc(F)cc1` (single isomer, unassigned) [Compound 35A], the AC50 was not above 1 µM. For the same molecule, the Emax under setting [1] was not above 130%.
For the molecule `CCS(=O)(=O)Nc1ccc(C2=NN(C(C)=O)C(c3ccc4c(c3)OCCO4)C2)cc1` (centres unmarked) [Compound 4A], the AC50 is not above 1 µM. Under setting [1], the Emax is 130 to 200%.
Regarding `COc1ccc(C2CC(c3ccc(NS(=O)(=O)c4c(F)cccc4F)cc3)=NN2C(C)=O)cc1` (centres unmarked) [Compound 5A], the AC50 is not above 1 µM. The Emax under setting [1] was not below 200%.
In the case of `COc1ccc(C2CC(c3ccc(NS(=O)(=O)c4ccc5c(c4)OCCO5)cc3)=NN2C(C)=O)cc1` (centres unmarked) [Compound 7A, N-(4-(1-acetyl-5-(4-methoxyphenyl)-4,5-dihydro-1H-pyrazol-3-yl)phenyl)-2,3-dihydrobenzo[b][1,4]dioxine-6-sulfonamide], the AC50 is 1 to 10 µM. Moreover, the Emax under setting [1] lay in the range of 130 to 200%.
The matching figures for `CC(=O)N1N=C(c2ccc(NS(=O)(=O)c3ccc(F)cc3)cc2)CC1c1ccc2c(c1)OCCO2` (centres unmarked) [Compound 8A, N-(4-(1-Acetyl-5-(2,3-dihydrobenzo[b][1,4]dioxin-6-yl)-4,5-dihydro-1H-pyrazol-3-yl)phenyl)-4-fluorobenzenesulfonamide]: 1 to 10 µM and 130 to 200%.
For the molecule `CC(=O)N1N=C(c2ccc3c(c2)CCN3S(C)(=O)=O)CC1c1ccc2c(c1)OCCO2` (centres unmarked) [Compound 9A, 1-(5-(2,3-dihydrobenzo[b][1,4]dioxin-6-yl)-3-(1-(methylsulfonyl)indolin-5-yl)-4,5-dihydro-1H-pyrazol-1-yl)ethanone], the half-maximal activity concentration (AC50) is 10 to 100 µM. The Emax under setting [1] was not above 130%.
`CCNS(=O)(=O)c1ccc(C2=NN(C(C)=O)C(c3ccc(OC)cc3)C2)cc1` (centres unmarked) [Compound 10A, 4-(1-acetyl-5-(4-methoxyphenyl)-4,5-dihydro-1H-pyrazol-3-yl)-N-ethylbenzenesulfonamide]: the AC50 was not above 1 µM. Besides, the Emax under setting [1] was in the range of 130 to 200%.
Regarding `COc1ccc(C2CC(c3ccc(NS(=O)(=O)c4c(F)cccc4F)cc3)=NN2C(=O)c2ccco2)cc1` (centres unmarked) [Compound 11A, 2,6-Difluoro-N-(4-(1-(furan-2-carbonyl)-5-(4-methoxyphenyl)-4,5-dihydro-1H-pyrazol-3-yl)phenyl)benzenesulfonamide], the AC50 was 1 to 10 µM. Besides, the Emax under setting [1] was not below 200%.
Regarding `COc1ccc(C2CC(c3ccc(NS(=O)(=O)c4c(F)cccc4F)cc3)=NN2C(=O)c2ccccn2)cc1` (centres unmarked) [Compound 14A, 2,6-Difluoro-N-(4-(5-(4-methoxyphenyl)-1-picolinoyl-4,5-dihydro-1H-pyrazol-3-yl)phenyl)benzenesulfonamide], the AC50 is 1 to 10 µM. Also, the Emax under setting [1] is not above 130%.
The matching figures for `COc1ccc(C2CC(c3ccc(NS(=O)(=O)c4c(F)cccc4F)cc3)=NN2C(=O)c2cccnc2)cc1` (centres unmarked) [Compound 15A, 2,6-difluoro-N-(4-(5-(4-methoxyphenyl)-1-nicotinoyl-4,5-dihydro-1H-pyrazol-3-yl)phenyl)benzenesulfonamide]: 1 to 10 µM and not below 200%.
The matching figures for `COc1ccc(C2CC(c3ccc(NS(=O)(=O)c4ccccc4)cc3)=NN2C(C)=O)cc1` (centres unmarked) [Compound 16A]: 1 to 10 µM and 130 to 200%.
With `COc1ccc(C2CC(c3ccc(NS(=O)(=O)c4ccccc4)cc3)=NN2C(C)=O)cc1` (centres unmarked) [Compound 17A, N-(4-(1-Acetyl-5-(4-methoxyphenyl)-4,5-dihydro-1H-pyrazol-3-yl)phenyl)benzene sulfonamide], the AC50 was 1 to 10 µM. Besides, the “Max activity Group” value under setting [1] is recorded as “C (C: ≦130%)”.
On to `COc1ccc(C2CC(c3ccc(NS(=O)(=O)c4ccccc4C(F)(F)F)cc3)=NN2C(C)=O)cc1` (centres unmarked) [Compound 20A], for which the AC50 is not above 1 µM. The Emax under setting [1] fell in the range of 130 to 200%.
For the molecule `CC(=O)N1N=C(c2ccc(NS(=O)(=O)c3ccc(F)cc3)cc2)CC1c1ccc2c(c1)CCO2` (centres unmarked) [Compound 22A, N-(4-(1-Acetyl-5-(2,3-dihydrobenzofuran-5-yl)-4,5-dihydro-1H-pyrazol-3-yl)phenyl)-4-fluorobenzenesulfonamide], the AC50 was not above 1 µM. Further, under setting [1], the Emax was 130 to 200%.
For `CC(=O)N1N=C(c2ccc(NS(=O)(=O)c3ccc(F)cc3)cc2)CC1c1ccc(F)c(F)c1` (centres unmarked) [Compound 27A, N-(4-(1-Acetyl-5-(3,4-difluorophenyl)-4,5-dihydro-1H-pyrazol-3-yl)phenyl)-4-fluoro benzenesulfonamide] the same measures were 1 to 10 µM and not above 130%.
With `COc1ccc(C2CC(c3ccc(NS(=O)(=O)c4cccc(Cl)c4)cc3)=NN2C(C)=O)cc1` (centres unmarked) [Compound 28A, N-(4-(1-Acetyl-5-(4-methoxyphenyl)-4,5-dihydro-1H-pyrazol-3-yl)phenyl)-3-chloro benzenesulfonamide], the AC50 was 1 to 10 µM. In addition, the Emax under setting [1] was not above 130%.
With `COc1ccc(C2CC(c3ccc(NS(=O)(=O)c4ccc(OC)c(F)c4)cc3)=NN2C(C)=O)cc1` (centres unmarked) [Compound 44A], the AC50 is not above 1 µM. Besides, under setting [1], the Emax lay within 130 to 200%.
`CC(=O)N1N=C(c2ccc(NS(C)(=O)=O)cc2)CC1c1ccc2c(c1)OCO2` (centres unmarked) [Compound 52A]: the AC50 was not above 1 µM. In addition, the Emax under setting [1] was not above 130%.
As to `CCS(=O)(=O)Nc1ccc(C2=NN(C(=O)c3ccco3)C(c3ccc(OC)cc3)C2)cc1` (centres unmarked) [Compound 53A], the AC50 lay within 1 to 10 µM. The Emax under setting [1] is not below 200%.
On to `COc1ccc(C2CC(c3ccc(NS(C)(=O)=O)cc3)=NN2C(C)=O)cc1OC` (centres unmarked) [Compound 54A], for which the Max activity is on record as 6% (30 μM).
For the molecule `CCS(=O)(=O)Nc1ccc(C2=NN(S(C)(=O)=O)C(c3ccc(OC)cc3)C2)cc1` (centres unmarked) [Compound 55A], the Max activity is reported as −5% (30 μM).
`COc1cc(C2CC(c3ccc(NS(C)(=O)=O)cc3)=NN2C(C)=O)cc(OC)c1OC` (centres unmarked) [Compound 56A]: the Max activity was −6% (30 μM).
